Test results taken from the NIST ThermoML archive (doi:10.1016/j.tca.2013.11.010).

Legend:
[1] = refractive index (Na D-line) (dimensionless); settings: 101.33 kPa, Liquid, Standard Abbe refractometry
[2] = relative permittivity at various frequencies (dimensionless); settings: 101.3 kPa, Liquid, Frequency=2 MHz, Parallel plate capacitor
[3] = for surface tension liquid-gas: Drop volume; for viscosity / speed of sound / mass density: 101.33 kPa; for viscosity / speed of sound / mass density / vapor or sublimation pressure: Liquid; for viscosity: Capillary tube (Ostwald / Ubbelohde) method; for speed of sound: Sing-around technique in a fixed-path interferometer; for mass density: Vibrating tube method; for vapor or sublimation pressure: Ebulliometric method (Recirculating still)

CCCCOC(=O)C(C)O (centres undefined) [butyl 2-hydroxypropanoate]
Settings | mass density, [3] [kg/m3] | refractive index, [1] | relative permittivity, [2] | speed of sound, [3] [m/s] | surface tension liquid-gas, [3] [mN/m] | vapor or sublimation pressure, [3] [kPa] | viscosity, [3] [mPa·s]
278.15 K | 996.896 | – | 11.488 | 1357.2 | 30.07 | – | 6.496
280.65 K | 994.466 | – | 11.323 | 1348.2 | 29.86 | – | 5.873
283.15 K | 992.023 | 1.42578 | 11.164 | 1339.1 | 29.65 | – | 5.333
285.65 K | 989.578 | 1.42472 | 11.046 | 1330.1 | 29.42 | – | 4.86
288.15 K | 987.126 | 1.4237 | 10.912 | 1321.2 | 29.14 | – | 4.446
290.65 K | 984.671 | 1.42259 | 10.769 | 1312.2 | 28.93 | – | 4.077
293.15 K | 982.212 | 1.4215 | 10.593 | 1303.2 | 28.72 | – | 3.753
295.65 K | 979.75 | 1.42038 | 10.428 | 1294.1 | 28.38 | – | 3.466
298.15 K | 977.283 | 1.41928 | 10.298 | 1285 | 28.15 | – | 3.207
300.65 K | 974.813 | 1.41815 | 10.158 | 1276 | 27.87 | – | 2.978
303.15 K | 972.337 | 1.41703 | 10.024 | 1266.9 | 27.64 | 0.102 | 2.773
305.65 K | 969.859 | 1.4159 | 9.87 | 1257.8 | 27.38 | – | 2.588
308.15 K | 967.374 | 1.41477 | 9.695 | 1248.8 | 27.16 | 0.149 | 2.423
310.65 K | 964.888 | 1.41366 | 9.583 | 1239.8 | 26.92 | – | 2.272
313.15 K | 962.397 | 1.41252 | 9.411 | 1230.8 | 26.68 | 0.201 | 2.134
315.65 K | 959.903 | 1.41139 | 9.273 | 1221.7 | 26.42 | – | 2.011
318.15 K | 957.407 | 1.41026 | 9.165 | 1212.8 | 26.1 | 0.273 | 1.897
320.65 K | 954.908 | 1.4091 | 9.002 | 1203.8 | 25.89 | – | 1.793
323.15 K | 952.408 | 1.40797 | 8.844 | 1194.9 | 25.7 | 0.371 | 1.695
325.65 K | 949.904 | 1.40682 | 8.699 | 1185.9 | 25.43 | – | 1.607
328.15 K | 947.397 | 1.40572 | 8.545 | 1177 | 25.14 | 0.511 | 1.526
330.65 K | 944.885 | 1.40441 | 8.418 | 1168 | 24.92 | – | 1.45
333.15 K | 942.369 | 1.40341 | 8.286 | 1159.1 | 24.67 | 0.679 | 1.379
335.65 K | 939.848 | 1.40226 | 8.164 | 1150.3 | 24.41 | – | 1.315
338.15 K | 937.324 | 1.40114 | 8.047 | 1141.5 | 24.16 | 0.899 | 1.257
343.15 K | – | – | – | – | – | 1.192 | –
348.15 K | – | – | – | – | – | 1.541 | –
353.15 K | – | – | – | – | – | 1.979 | –
358.15 K | – | – | – | – | – | 2.502 | –
363.15 K | – | – | – | – | – | 3.224 | –
368.15 K | – | – | – | – | – | 4.057 | –
373.15 K | – | – | – | – | – | 5.075 | –
378.15 K | – | – | – | – | – | 6.271 | –
383.15 K | – | – | – | – | – | 7.753 | –
388.15 K | – | – | – | – | – | 9.531 | –
393.15 K | – | – | – | – | – | 11.64 | –
398.15 K | – | – | – | – | – | 14.12 | –
403.15 K | – | – | – | – | – | 17 | –
408.15 K | – | – | – | – | – | 20.43 | –
413.15 K | – | – | – | – | – | 24.39 | –
418.15 K | – | – | – | – | – | 29.2 | –
423.15 K | – | – | – | – | – | 34.6 | –
428.15 K | – | – | – | – | – | 40.78 | –
433.15 K | – | – | – | – | – | 47.9 | –
438.15 K | – | – | – | – | – | 55.97 | –
443.15 K | – | – | – | – | – | 65.3 | –
448.15 K | – | – | – | – | – | 75.81 | –
453.15 K | – | – | – | – | – | 87.7 | –
